pKi: −log10 of the molar value.
These compounds were tested against T1, human H4 receptor (Homo sapiens, UniProt Q9H3N8) (assay: Binding Assay on Recombinant Human Histamine H4 Receptor). Details: Table 1; [3H] histamine competition binding, membranes of SK-N-MC cells transfected with human H4 receptor; average of results.
T1 construct: expressed in transfected cells
Protocol: Binding Assay on Recombinant Human Histamine H4 Receptor.
Cell pellets from SK-N-MC cells stably or transiently transfected with human H4 receptor were used for the binding assays. Cell pellets were homogenized in 50 mM Tris/5 mM EDTA buffer and supernatants from an 800g spin were collected and recentrifuged at 30,000g for 30 min. Pellets were rehomogenized in 50 mM Tris/5 mM EDTA buffer. […] Compounds were tested in free base, hydrochloride salt, or trifluoroacetic acid form. Nonspecific binding was defined with 100 μM cold histamine. […] Membranes were harvested by rapid filtration using the 96 well Brandel system or a cell harvester using a Whatman GF/C filter or filter plates treated with 0.5% polyethylenimine (PEI), and washed 4 times with ice-cold 50 mM Tris/5 mM EDTA buffer. Filters were then dried, mixed with scintillant and radioactive counts were determined. […] Data marked with an asterisk (*) were obtained by the cell harvester method. Where activity is shown as greater than (>) a particular value, the value is the highest concentration tested.

T1 sequence (Q9H3N8 whole entry): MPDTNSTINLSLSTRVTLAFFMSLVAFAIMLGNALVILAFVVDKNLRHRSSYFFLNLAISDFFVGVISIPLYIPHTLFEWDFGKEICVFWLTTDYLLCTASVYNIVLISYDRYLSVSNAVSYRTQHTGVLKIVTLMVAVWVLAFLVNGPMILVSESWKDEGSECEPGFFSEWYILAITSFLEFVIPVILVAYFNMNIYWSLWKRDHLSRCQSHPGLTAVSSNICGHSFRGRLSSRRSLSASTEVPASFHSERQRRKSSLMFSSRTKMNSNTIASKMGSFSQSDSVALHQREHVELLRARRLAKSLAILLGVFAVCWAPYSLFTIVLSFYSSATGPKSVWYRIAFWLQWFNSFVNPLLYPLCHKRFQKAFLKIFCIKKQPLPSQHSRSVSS

Compound | pKi
4-(4-piperazin-1-yl)-5,6,7,8-tetrahydro-quinazolin-2-ylamine [Example 67] | 7.77
Nc1nc(C2CCCC2)cc(N2CCNCC2)n1 [Example 1, 4-Cyclopentyl-6-piperazin-1-yl-pyrimidin-2-ylamine] | 9.00
CN1CCN(c2cc(C3CCCC3)nc(N)n2)CC1 [Example 2, 4-Cyclopentyl-6-(4-methyl-piperazin-1-yl)-pyrimidin-2-ylamine] | 9.00
Nc1nc(C2CCCC2)cc(N2CCC[C@@H](N)C2)n1 [Example 3, (R)-4-(3-Amino-piperidin-1-yl)-6-cyclopentyl-pyrimidin-2-ylamine] | 6.59

Same assay, conditions: Table 2; [3H] histamine competition binding, membranes of SK-N-MC cells transfected with human H4 receptor; average of results

Compound | pKi
Nc1nc(C2CCCC2)cc(N2CCC3(CCCN3)C2)n1 (racemic) [Example 84, 4-Cyclopentyl-6-(cis-1,7-diaza-spiro[4.4]non-7-yl)-pyrimidin-2-ylamine] | 7.96
Nc1nc(C2CCCC2)cc(N2CC3NCCOC3C2)n1 (single isomer, unassigned) [Example 86, 4-Cyclopentyl-6-(trans-hexahydro-pyrrolo[3,4-b][1,4]oxazin-6-yl)-pyrimidin-2-ylamine] | 7.25
Nc1nc(C2CCCC2)cc(N2CC3NCCOC3C2)n1 (single isomer, unassigned) [Example 88, 4-Cyclopentyl-6-(cis-hexahydro-pyrrolo[3,4-b][1,4]oxazin-6-yl)-pyrimidin-2-ylamine] | 6.28
CC(C)c1cc(N2CC3NCCOC3C2)nc(N)n1 (single isomer, unassigned) [Example 93, 4-(cis-Hexahydro-pyrrolo[3,4-b][1,4]oxazin-6-yl)-6-isopropyl-pyrimidin-2-ylamine] | 6.32
CC(C)c1cc(N2CC3NCCOC3C2)nc(N)n1 (single isomer, unassigned) [Example 94, 4-(trans-Hexahydro-pyrrolo[3,4-b][1,4]oxazin-6-yl)-6-isopropyl-pyrimidin-2-ylamine] | 6.30
CN[C@@H]1CCN(c2cc(C3CC3c3ccccc3)nc(N)n2)C1 (single isomer, unassigned) [Example 255] | 7.47
CN[C@@H]1CCN(c2cc(C3CC3c3ccccc3)nc(N)n2)C1 (single isomer, unassigned) [Example 256] | 8.30
Nc1nc(C2CCCC2)cc(N2CCC3(CCCN3)C2)n1 (single isomer, unassigned) [Example 257, 4-Cyclopentyl-6-(cis-1,7-diaza-spiro[4.4]non-7-yl)-pyrimidin-2-ylamine] | 7.51
Nc1nc(C2CCCC2)cc(N2CCC3(CCCN3)C2)n1 (single isomer, unassigned) [Example 258, 4-Cyclopentyl-6-(cis-1,7-diaza-spiro[4.4]non-7-yl)-pyrimidin-2-ylamine] | 7.47
Nc1nc(C2CCOC2)cc(N2CCNCC2)n1 (single isomer, unassigned; (+)) [Example 194, (+)-4-piperazin-1-yl-6-(tetrahydro-furan-3-yl)-pyrimidin-2-ylamine] | 7.31
Nc1nc(C2CCOC2)cc(N2CCNCC2)n1 (single isomer, unassigned; (-)) [Example 193, (−)-4-piperazin-1-yl-6-(tetrahydro-furan-3-yl)-pyrimidin-2-ylamine] | 7.51
Nc1nc(C2CC2c2ccccc2)cc(N2CC[C@@H](N)C2)n1 (stereo in doubt) [Example 157, (R)-4-(3-Amino-pyrrolidin-1-yl)-6-(trans-2-phenyl-cyclopropyl)-pyrimidin-2-ylamine] | 7.54
CN[C@@H]1CCN(c2cc(C3CC3c3ccccc3)nc(N)n2)C1 (stereo in doubt) [Example 160, (R)-4-(3-Methylamino-pyrrolidin-1-yl)-6-(trans-2-phenyl-cyclopropyl)-pyrimidin-2-ylamine] | 8.52
COCc1cc(N2CCCC(N)C2)nc(N)n1 (stereo in doubt) [Example 225, (R)-4-(3-Amino-piperidin-1-yl)-6-methoxymethyl-pyrimidin-2-ylamine] | 6.33

Reference: patent US8716475B2, “2-aminopyrimidine modulators of the histamine H4 receptor” (Janssen Pharmaceutica NV, priority 2007, dated 2014)
